# In PubChem BioAssay (NCI):
#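 The compound was tested at five concentrations on cells cultured in 96-well plates, with a 48-hour exposure period. Here, GI50 denotes the concentration required for 50% inhibition of growth. TGI marks complete inhibition of growth.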
# Assays:
# Assay in all cases: NCI tumour cell line growth inhibition, 48 h
# 786-0 renal = test system: 786-0 renal
# LOX IMVI melanoma = test system: LOX IMVI melanoma
# UACC-257 melanoma = test system: UACC-257 melanoma
# HOP-62 NSCLC = test system: HOP-62 NSCLC
# A498 renal = test system: A498 renal
# NCI-H460 lung = test system: NCI-H460 lung
# SR leukemia = test system: SR leukemia
# SK-MEL-28 melanoma = test system: SK-MEL-28 melanoma
# SK-MEL-2 melanoma = test system: SK-MEL-2 melanoma
# HCT-15 colon = test system: HCT-15 colon
SMILES,TGI (786-0 renal) [µM],TGI (LOX IMVI melanoma) [µM],TGI (UACC-257 melanoma) [µM],TGI (HOP-62 NSCLC) [µM],TGI (A498 renal) [µM],TGI (NCI-H460 lung) [µM],TGI (SR leukemia) [µM],TGI (SK-MEL-28 melanoma) [µM],TGI (SK-MEL-2 melanoma) [µM],TGI (HCT-15 colon) [µM],GI50 (786-0 renal) [µM],GI50 (LOX IMVI melanoma) [µM],GI50 (UACC-257 melanoma) [µM],GI50 (HOP-62 NSCLC) [µM],GI50 (A498 renal) [µM],GI50 (NCI-H460 lung) [µM],GI50 (SR leukemia) [µM],GI50 (SK-MEL-28 melanoma) [µM],GI50 (SK-MEL-2 melanoma) [µM],GI50 (HCT-15 colon) [µM]
S=C=NCCc1ccccc1,1.05,0.66,2.75,1.35,2,0.765,86.9,2.27,0.928,1.12,,,,,,,,,,
COC1OC(C)C2OC(C)(C)OC2C1OC(C)=O (stereo not drawn),> 100,> 100,> 100,> 100,> 100,> 100,> 100,> 100,,> 100,,,,,,,,,,
CC1=C(C)C2(O)C(=C(C)C1=O)/C(=C(/O)c1ccccc1)c1nc3ccccc3n12 (stereo not drawn),83.9,34.6,33.4,48.7,45.4,50.8,37.6,49.4,40,46.5,29.5,16.7,16.5,21.9,23.7,18.5,10.9,20.6,19.4,19.3
O=c1cc(-c2ccccc2)oc2cc(OC/C(=N/O)c3ccc(F)cc3)ccc12,> 50,> 50,> 50,> 50,,44.2,> 50,> 50,> 50,> 50,39.6,20.8,35.3,> 50,,12.9,23,27.1,20.2,18.5
Cn1c(=S)c2[nH]c(SCCN3C(=O)c4ccccc4C3=O)nc2n(C)c1=O,> 100,> 100,> 100,> 100,> 100,> 100,> 100,> 100,> 100,> 100,,,,,,,,,,
NC(=S)N=Nc1c(O)c2ccccc2c2ccccc12,88.2,11.1,3.31,7.87,45.7,11.6,35.8,10,33.8,> 55.4,31.7,2.81,1.72,2.31,14.9,3.23,9.64,2.98,14.9,3.22
Clc1ccccc1C(Nc1ncccn1)Nc1ncccn1,> 100,> 100,> 100,> 100,> 100,> 100,> 100,> 100,> 100,> 100,,,,,,,,,,
Nc1nc(=O)n([C@@H]2CS[C@H](CO)O2)cc1F,> 100,> 100,> 100,> 100,> 100,> 100,> 100,> 100,> 100,> 100,> 100,> 100,> 100,> 100,> 100,> 100,> 100,> 100,> 100,> 100
COc1ccc(/C=C\c2cc(OC)c(OC)c(OC)c2)cc1OCC(=O)Nc1ccc2nc(C)sc2c1,> 100,9,3.4,8.85,> 100,33.2,> 100,13.1,19.1,10.4,7.55,2.64,1.73,3.09,4.18,3.36,2.93,3.22,3.15,2.8
Cc1ccc(-c2nc([P+](c3ccccc3)(c3ccccc3)c3ccccc3)c(Nc3ccccc3)o2)cc1,2.57,1.76,2.7,,2.46,1.8,2.32,2.52,2.42,1.81,1.18,0.457,0.831,,1.12,0.515,0.39,1.22,0.808,0.487
CCOC(=O)/C=C/C(=O)[C@H](CC(C)C)NC(=O)[C@H](Cc1ccccc1)NC(=O)OCc1ccccc1,3.4,3.39,29.2,29.6,,38.2,6.32,12,27.1,3.78,1.84,1.76,15,14.4,,16.2,2.39,3.12,13.8,1.83
COc1cc2c(=O)n(CCN(C)C)c3c4cc5c(cc4ccc3c2cc1OC)OCO5,0.672,0.32,1.52,1.88,0.603,0.592,3.78,3.3,1.94,1.83,0.166,0.1,0.413,0.193,0.0417,0.123,0.0557,0.747,0.876,0.391
COc1ccc(Nc2nc3cc(N)cc(N)c3nc2-c2ccccc2)cc1OC,90.3,72.2,> 100,> 100,55.7,> 100,21.8,49.7,> 100,> 100,23.8,25.8,35.6,34.8,11.7,20.5,2.67,21.5,27.2,29
